Experimental data taken from PubChem BioAssay AID270 (DTP/NCI, 2004).
“And” between values parts separate entries of the source, which are not always exact repeats. Identical values can stand only once. Results filed as inconclusive are left out.

System: BDF1 mice, s.c. Lewis lung carcinoma, T/C %
Test: NCI In Vivo Anticancer Drug Screen. Data for tumor model Lewis Lung Carcinoma (subcutaneous) in B6D2F1 (BDF1) mice
Outline: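 Tumor-bearing mice were treated with test compound, and either survival or tumor size was recorded. Values are the treated-group measurement divided by that of the vehicle-treated control group.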

[1] = endpoint: median survival time, dose: 6.25 mg/kg/injection, schedule: Q01DX009 (ip), vehicle: saline, higher = longer survival
[2] = endpoint: median survival time, dose: 12.5 mg/kg/injection, schedule: Q01DX009 (ip), vehicle: saline, higher = longer survival

O=NN(CCCl)C(=O)Nc1ccc(CCO)cc1
T/C (endpoint: mean tumor weight, dose: 10.0 mg/kg/injection, schedule: Q01DX001 (ip), vehicle: carboxymethylcellulose (CMC), higher = larger tumour): 43 % of control
T/C (endpoint: mean tumor weight, dose: 20.0 mg/kg/injection, schedule: Q01DX001 (ip), vehicle: carboxymethylcellulose (CMC), higher = larger tumour): 22 % of control

O=C(Nc1ccc(C2=NCCN2)cc1)c1cc(Cl)cc(C(=O)Nc2ccc(C3=NCCN3)cc2)c1
T/C (endpoint: mean tumor weight, dose: 100.0 mg/kg/injection, schedule: Q01DX011 (ip), vehicle: saline, higher = larger tumour): 93 % of control
T/C (endpoint: mean tumor weight, dose: 200.0 mg/kg/injection, schedule: Q01DX011 (ip), vehicle: saline, higher = larger tumour): 66 % of control
T/C (endpoint: mean tumor weight, dose: 400.0 mg/kg/injection, schedule: Q01DX011 (ip), vehicle: saline, higher = larger tumour): 51 % of control
T/C (endpoint: mean tumor weight, dose: 800.0 mg/kg/injection, schedule: Q01DX011 (ip), vehicle: saline, higher = larger tumour): 21 % of control

COc1ccc(CN2CCCN(Cc3ccc(OC)cc3)C2c2ccccc2)cc1
T/C (endpoint: mean tumor weight, dose: 111.0 mg/kg/injection, schedule: Q01DX011 (ip), vehicle: other, higher = larger tumour): 120 % of control
T/C (endpoint: mean tumor weight, dose: 250.0 mg/kg/injection, schedule: Q01DX011 (ip), vehicle: other, higher = larger tumour): 83 % of control

Nc1nc(N)c(N=O)c(Nc2ccc(Br)cc2)n1
T/C (endpoint: mean tumor weight, dose: 10.0 mg/kg/injection, schedule: Q01DX011 (ip), vehicle: other, higher = larger tumour): 76 % of control
T/C (endpoint: mean tumor weight, dose: 20.0 mg/kg/injection, schedule: Q01DX011 (ip), vehicle: other, higher = larger tumour): 114 % of control
T/C (endpoint: mean tumor weight, dose: 40.0 mg/kg/injection, schedule: Q01DX011 (ip), vehicle: other, higher = larger tumour): 70 % of control
T/C (endpoint: mean tumor weight, dose: 80.0 mg/kg/injection, schedule: Q01DX011 (ip), vehicle: other, higher = larger tumour): 44 % of control and 45 % of control
T/C (endpoint: mean tumor weight, dose: 160.0 mg/kg/injection, schedule: Q01DX011 (ip), vehicle: other, higher = larger tumour): 47 % of control
T/C (endpoint: mean tumor weight, dose: 320.0 mg/kg/injection, schedule: Q01DX011 (ip), vehicle: other, higher = larger tumour): 62 % of control

C[C@]12CCC(=O)C=C1CC[C@@H]1[C@@H]2C(=O)C[C@]2(C)C3=CC(=O)O[C@H]3C[C@@H]12
T/C (endpoint: median survival time, dose: 3.13 mg/kg/injection, schedule: Q01DX009 (ip), vehicle: saline, higher = longer survival): 106 % of control
T/C [1]: 109 % of control
T/C (endpoint: median survival time, dose: 12.5 mg/kg/injection, schedule: Q01DX009 (ip), vehicle: saline with Tween-80, higher = longer survival): 116 % of control
T/C [2]: 100 % of control
T/C (endpoint: median survival time, dose: 25.0 mg/kg/injection, schedule: Q01DX009 (ip), vehicle: saline with Tween-80, higher = longer survival): 91 % of control

CC1CN1P(=O)(N1CC1C)N1CC1C (stereo not drawn)
T/C [1]: 98 % of control
T/C [2]: 90 % of control
T/C (endpoint: median survival time, dose: 25.0 mg/kg/injection, schedule: Q01DX009 (ip), vehicle: saline, higher = longer survival): 89 % of control

Cc1cc(C)nc(NS(=O)(=O)c2ccc(N=Nc3nc4[nH]c(N)nc(=S)c4[nH]3)cc2)n1
T/C (endpoint: median survival time, dose: 0.78 mg/kg/injection, schedule: Q01DX009 (ip), vehicle: Klucel (hydroxypropylcellulose) (HPC), higher = longer survival): 96 % of control
T/C (endpoint: median survival time, dose: 1.56 mg/kg/injection, schedule: Q01DX009 (ip), vehicle: Klucel (hydroxypropylcellulose) (HPC), higher = longer survival): 108 % of control

COc1ccc(Nc2ccnc3cc(Cl)ccc23)cc1CN(CCCl)CCCl
T/C (endpoint: mean tumor weight, dose: 0.06 mg/kg/injection, schedule: Q01DX011 (ip), vehicle: other, higher = larger tumour): 113 % of control
T/C (endpoint: mean tumor weight, dose: 0.12 mg/kg/injection, schedule: Q01DX011 (ip), vehicle: other, higher = larger tumour): 94 % of control
T/C (endpoint: mean tumor weight, dose: 0.25 mg/kg/injection, schedule: Q01DX011 (ip), vehicle: other, higher = larger tumour): 85 % of control
T/C (endpoint: mean tumor weight, dose: 0.5 mg/kg/injection, schedule: Q01DX011 (ip), vehicle: other, higher = larger tumour): 26 % of control and 44 % of control
T/C (endpoint: mean tumor weight, dose: 1.0 mg/kg/injection, schedule: Q01DX011 (ip), vehicle: other, higher = larger tumour): 32 % of control

NC(=O)N(CCCl)N=O
T/C (endpoint: mean tumor weight, dose: 0.63 mg/kg/injection, schedule: Q01DX011 (ip), vehicle: saline, higher = larger tumour): 80 % of control
T/C (endpoint: mean tumor weight, dose: 1.25 mg/kg/injection, schedule: Q01DX011 (ip), vehicle: saline, higher = larger tumour): 53 % of control
T/C (endpoint: mean tumor weight, dose: 2.5 mg/kg/injection, schedule: Q01DX011 (ip), vehicle: saline, higher = larger tumour): 10 % of control
T/C (endpoint: median survival time, dose: 1.0 mg/kg/injection, schedule: Q01DX001 (ip), vehicle: saline + alcohol, higher = longer survival): 120 % of control
